Values joined by “and” are separate entries in the source; they are usually repeats but may differ in a detail not shown here. Equal values may be shown once.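 The compound was tested at five concentrations on cells cultured in 96-well plates, with a 48-hour exposure period. Here, GI50 denotes the concentration required for 50% inhibition of growth. At the TGI there is no net growth.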
Columns and labels:
Assay in all cases: NCI anticancer screen, dose series, 48 h
SNB-19 CNS = system: SNB-19 CNS
A498 renal = system: A498 renal
HCT-116 colon = system: HCT-116 colon
NCI-H226 lung = system: NCI-H226 lung
A549 NSCLC = system: A549 NSCLC
MCF7 breast = system: MCF7 breast
OVCAR-8 ovarian = system: OVCAR-8 ovarian
UO-31 renal = system: UO-31 renal
MALME-3M melanoma = system: MALME-3M melanoma
SR leukemia = system: SR leukemia

SMILES	GI50 (SNB-19 CNS) [µM]	TGI (SNB-19 CNS) [µM]	GI50 (A498 renal) [µM]	TGI (A498 renal) [µM]	GI50 (HCT-116 colon) [µM]	TGI (HCT-116 colon) [µM]	GI50 (NCI-H226 lung)	TGI (NCI-H226 lung) [µM]	GI50 (A549 NSCLC)	TGI (A549 NSCLC)	GI50 (MCF7 breast)	TGI (MCF7 breast) [µM]	GI50 (OVCAR-8 ovarian)	TGI (OVCAR-8 ovarian)	GI50 (UO-31 renal)	TGI (UO-31 renal) [µM]	GI50 (MALME-3M melanoma)	TGI (MALME-3M melanoma) [µM]	GI50 (SR leukemia)	TGI (SR leukemia) [µM]
COc1cc2c(cc1OC)[C@@H]1C(=O)c3ccc4c(c3O[C@@H]1CO2)C[C@H](C(C)C)O4	9.74	> 78.1	0.661	> 31	0.0435	> 37.8	8.89 µM	> 100	0.759 µM	> 57.8 µM	2.66 µM	> 52.2	3.96 µM	> 69.9 µM	3.75 µM	97.9	5.56 µM	53.2	1.42 µM	> 23.6
O=C1OC2(c3ccc(O)cc3Oc3cc(O)ccc32)c2cccc3cccc1c23	17.5	34.1	24.8	70.1	22.4	> 100	16.1 µM	52.1	19.7 µM	39.8 µM	19.9 µM	91.3	17.4 µM	36.9 µM	17.1 µM	> 100	20.5 µM	54.7	27.5 µM	> 100
Cc1nnn(C)c1-c1cnc2c3ccc(C(C)(C)O)cc3n([C@H](c3ccccc3)C3CCOCC3)c2c1	0.0395	> 100	< 0.0381	0.581	0.0149	16.4	0.356 µM	23.4	0.037 µM	31.9 µM	< 0.01 µM	> 100	0.0652 µM	31.6 µM	< 0.01 µM	13.4	0.052 µM	41.3	< 0.01 µM	> 100
O=C(COc1ccccc1)NNc1ccccc1	234	> 300	87.7	> 300	207	> 300	> 92.3 µM and 224 µM	> 300	60.4 µM		47.8 µM and 38.8 µM	> 300	> 56.1 µM and 58.3 µM	> 300 µM	10.3 µM and 20.1 µM	> 300	66.9 µM and 101 µM	> 300	> 26.3 µM and 6.77 µM	> 300
CCOc1ccc(-c2nc3ccc(-c4nc5ccc(N6CCN(C)CC6)cc5[nH]4)cc3[nH]2)cc1	0.448	1.73	0.223	1.05	0.0397	0.26	0.648 µM	2.25	1.24 µM and 1.04 µM	3.13 µM and 3.35 µM	0.0328 µM	0.38	0.162 µM and 0.315 µM	0.54 µM and 1.25 µM	2.54 µM	7.7	0.0329 µM	0.551	0.311 µM	2.67
COc1ccc(Nc2ncc(I)c(NCCCNC(=O)C3CCC3)n2)cc1	5.26	> 100	7.25	21.7	4.01	20.6	3.91 µM	67.1	4.6 µM	24.6 µM	8.31 µM	> 100	8.6 µM	> 100 µM	0.73 µM	3.85	7.39 µM	> 100	4.91 µM	> 100
OCc1ccc(-c2nc(-c3ccc4c(c3)OCO4)c(-c3ccccn3)[nH]2)cc1	> 25	> 25	> 25	> 25	> 25	> 25	> 25 µM	> 25	> 25 µM	> 25 µM	> 25 µM	> 25	> 25 µM	> 25 µM	> 23.6 µM	> 25	> 25 µM	> 25	> 25 µM	> 25

— PubChem BioAssay (NCI)
